Assay results: the METLIN SMRT retention time set (Domingo-Almenara et al. 2019)

Experiment: gradient 5% acetonitrile 3 min, to 50% in 2 min, to 85% in 15 min, held 3 min, 100 µL/min
Details: column: Zorbax Extend-C18 2.1 x 50 mm; eluents: water / acetonitrile, 0.1% formic acid
Outline: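 Pure standards were analyzed in mixtures of ~100 molecules using HPLC coupled to a quadrupole time-of-flight mass spectrometer, in both positive and negative ionization mode. Separation used a Zorbax Extend-C18 column (2.1 × 50 mm, 1.8 μm) at 100 μL/min, with water and acetonitrile each containing 0.1% formic acid. Dead and dwell volumes were 40 μL and 900 μL, and data were collected over 3 months. Retention time was read from computationally picked adduct peaks, each inspected manually.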

| Structure (SMILES) | RP-LC retention time |
| --- | --- |
| CCOC(=O)CNC(=O)NCc1cccn1Cc1cc(C)ccc1C | 888 s |
| COc1ccc2cc(C(=O)NCCC(=O)NCCc3c[nH]c4ccccc34)[nH]c2c1 | 775 s |
| CCOC(=O)c1noc2ncnc(Nc3cccc(C)c3C)c12 | 948 s |
| Oc1ccc2ccc3[nH]cnc3c2c1 | 625 s |
| COc1ccc(NC(=O)NCC23CCCC=C2N(C)C(=O)CC3)cc1 (configuration not stated) | 740 s |
| O=C(NCC1CCCO1)c1coc(NC(=O)C2CC2)n1 (configuration not stated) | 571 s |
| O=C(CCS(=O)(=O)c1ccc(Cl)cc1)Nc1nnc(Cc2ccc3c(c2)OCO3)o1 | 726 s |
| CCN(CC)C(=O)Cn1c(=O)c2cnc(-c3ccccc3)nc2n(C)c1=O | 854 s |
| CCOCCCNC(=O)N1[C@H]2CC[C@@H]1c1cnc(-c3ccc(F)cc3)nc1C2 | 800 s |
| O=C(CCc1c(-c2ccc(Cl)cc2)nc2ccccn12)Nc1ccc(F)cc1 | 748 s |
| CC(=O)N1CCc2cc(C)c(S(=O)(=O)NC(C)C)cc21 | 740 s |
| CN(C)c1cccc(-c2nc(C3CC(=O)N(c4ccc(F)cc4)C3)no2)c1 (configuration not stated) | 1030 s |
| Cc1ccc(OCC(=O)Nc2cc3c(cc2N2CCCC2)n(C)c(=O)c(=O)n3C)c(C)c1 | 1000 s |
| CCC(C)N(CCNC(=O)Cn1c(=O)oc2ccccc21)Cc1ccco1 (configuration not stated) | 631 s |
| CC(C)CC(=O)N1CCc2[nH]nc(C(=O)NCCCc3ccccc3)c2C1 | 795 s |
| CCCn1c(=O)c2c(nc3n2CCN3c2ccc(OC)cc2)n(C)c1=O | 834 s |
| O=C(CSc1ccc(NC(=O)c2ccco2)cc1)Nc1nc(-c2ccccc2)cs1 | 966 s |
| COC(=O)c1cc2c(=O)n(-c3cc(OC)c(OC)c(OC)c3)ccc2nc1C | 751 s |
| COc1ccc(SCC(=O)Nc2nnc(-c3ccno3)o2)cc1 | 672 s |
| Cc1ccn2cc(-c3ccc(NS(=O)(=O)c4ccc(-c5csc(C)n5)s4)cc3)nc2n1 | 679 s |
| Cc1cc(=O)n(CC(=O)Nc2ccc3c(c2)OCCO3)c(N)n1 | 542 s |

The remaining lines, values ahead:

| RP-LC retention time | Structure (SMILES) |
| --- | --- |
| 752 s | O=C(c1ccccc1)N1C[C@@H]2C[C@H]1C[C@@H]2NS(=O)(=O)c1ccccc1 |
| 923 s | Cc1noc(-c2cccc(OC3CN(C(=O)Nc4cccc(F)c4)C3)c2)n1 |
| 751 s | CN1C(=O)CCc2cc(NS(=O)(=O)Cc3cccc(Cl)c3)ccc21 |
| 918 s | CCc1ccccc1NC(=O)CN1C(=O)C2CCCCN2c2ccc(S(=O)(=O)N(C)C)cc21 (configuration not stated) |
| 1070 s | CN(C)c1cccc(-c2nn3c(CSc4ccccc4)nnc3s2)c1 |
| 831 s | CCn1cc(S(=O)(=O)Nc2ccccc2OC)c2cccnc21 |
| 570 s | O=C(NCCCN1CCCC1=O)c1ccc2ncnc(N3CCCC3)c2c1 |
| 602 s | Cc1nc2c(c(=O)n1CC(=O)NC1CCCC1)CCN(Cc1ccccc1)C2 |
| 942 s | Cc1ccc(-c2cc(=O)n3c4ccccc4n(CC(=O)NC4CCCC4)c3n2)cc1 |
| 828 s | CCC(=O)N1CCc2ccccc2C1C(=O)NCc1cccc(Br)c1 (configuration not stated) |
| 678 s | CCOC(=O)c1cccc(NC(=O)Cn2cnc3nc(N4CCCC(C(=O)NC)C4)sc3c2=O)c1 (configuration not stated) |
| 664 s | CC1CCCCN1CCNC(=O)c1ccc2ccnc(N3CCN(c4ccc(Cl)cc4)CC3)c2c1 (configuration not stated) |
| 671 s | Cc1nn(-c2ccccc2)c2c1-c1sc(C(=O)N3CCN(c4ccccn4)CC3)cc1CC2 |
| 813 s | CCOc1ccccc1CNC(=O)C1CCCN(c2ncnc3c2oc2ccccc23)C1 (configuration not stated) |
| 842 s | Cc1cccc(NC(=O)Cn2nc(C(=O)N3CCCC3)c3ccccc32)c1 |
| 676 s | COc1ccc(-n2nc(C(=O)N3CCN(c4ccccn4)CC3)c3c4ccccc4n(C)c3c2=O)cc1 |
